Assay results as given in paper PMC12027839, “Aging-Associated Amyloid-β Plaques and Neuroinflammation in Bottlenose Dolphins (Tursiops truncatus) and Novel Cognitive Health-Supporting Roles of Pentadecanoic Acid (C15:0)” (International Journal of Molecular Sciences, 2025).

Assays:
[1] = target: T1, Fatty Acid Amide Hydrolase (FAAH) (Homo sapiens, UniProt O00519); assay: Enzyme assay with human recombinant FAAH (Sf21 cells), AMC arachidonoyl amide substrate, spectrofluorimetric, […] concentrations; format: biochemical
[2] = target: T2, Monoamine oxidase B (MAO-B) (Homo sapiens, UniProt P27338); assay: Enzyme assay with human recombinant MAO-B (insect cells), kynuramine substrate, spectrofluorimetric, […] concentrations; format: biochemical
T2 construct: gene MAOB

[3] = target: Catechol-O-Methyl Transferase (COMT) (Sus scrofa, UniProt Q99028); assay: biochemical; design: Eurofins Alzheimer's MoA LeadHunter enzyme assays; percent inhibition of enzyme activity, mean of duplicates; conditions: Ligand or Substrate=Esculetin
Procedure: (§1) Standardized enzyme and radioligand binding assays were used by an independent third party (Eurofins Discovery, Taiwan) to evaluate C15:0 across ten concentrations and up to 50 µM for activities as part of the Eurofins Discovery Alzheimer’s MoA LeadHunter Panel. Methods employed in this study were adapted from the scientific literature to maximize reliability and reproducibility. Reference standards were run as an integral part of each assay to ensure the validity of the results obtained. IC50 values were determined by a non-linear, least squares regression analysis using MathIQTM (ID Business Solutions Ltd., Woking, UK). This study included evaluated inhibition of the following targets by C15:0 using enzyme assays (Cholinesterase, Acetyl, ACES; Cholinesterase, Butyryl, CHLE; Peptidase, CTSB (Cathepsin B); Cyclooxygenase COX-1; Cyclooxygenase COX-2; Myeloperoxidase; IDO1; Monoamine Oxidase MAO-A; Monoamine Oxidase MAO-B; Peptidase, Endothelin Converting Enzyme-1 (ECE-1); Peptidase, Metalloproteinase, Neutral Endopeptidase; Peptidase, BACE1 (beta-Secretase); Protein Tyrosine Kinase, Fyn; Protein Serine/Threonine Kinase, GSK3B; Protein Serine/Threonine Kinase, MAPK14 (p38alpha); Protein Tyrosine Phosphatase, DUSP22; Fatty Acid Amide Hydrolase (FAAH); Nitric Oxide Synthetase, Inducible (iNOS); Catechol-O-Methyl Transferase (COMT); and Lipoxygenase 15-LOX-2) and radioligand binding assays (Adenosine A2A; Transporter, GABA; GABAA, Ro-15-1788, Hippocampus; Glutamate, AMPA; Glutamate, NMDA, MK-801; Glutamate, NMDA, Polyamine; Glutamate, Metabotropic, mGlu5; Histamine H3; Chemokine CX3CR1; Muscarinic M1; Nicotinic Acetylcholine alpha7, Methyllycaconitine; Serotonin (5-Hydroxytryptamine) 5-HT1A, WAY-100635; Serotonin (5-Hydroxytryptamine) 5-HT4B; Serotonin (5-Hydroxytryptamine) 5-HT6; Sodium Channel, Site 1; Somatostatin sst4; Sigma 2; Sigma1; Platelet Activating Factor (PAF)). Biochemical assay results were presented as the percent inhibition of specific binding or activity. […] Primary screening was conducted in duplicate with semi-quantitative data (e.g., estimated IC50). Significant responses (≥50% inhibition) were noted.

[4] = target: T3, Cholinesterase, Acetyl, ACES (Homo sapiens, UniProt P22303); assay: biochemical; design: Eurofins Alzheimer's MoA LeadHunter enzyme assays; percent inhibition of enzyme activity, mean of duplicates; conditions: Ligand or Substrate=Acetylthiocholine
T3 construct: gene ACHE
Procedure: as §1

[5] = target: T4, Cholinesterase, Butyryl, CHLE (Homo sapiens, UniProt P06276); assay: biochemical; design: Eurofins Alzheimer's MoA LeadHunter enzyme assays; percent inhibition of enzyme activity, mean of duplicates; conditions: Ligand or Substrate=S-Butyrylthiocholine
T4 construct: gene BCHE
Procedure: as §1

Cyclooxygenase COX-1 = target: T5, Cyclooxygenase COX-1 (Homo sapiens, UniProt P23219); assay: biochemical; design: Eurofins Alzheimer's MoA LeadHunter enzyme assays; percent inhibition of enzyme activity, mean of duplicates; conditions: Ligand or Substrate=Arachidonic acid
T5 construct: gene PTGS1
Procedure: as §1

Cyclooxygenase COX-2 = target: T6, Cyclooxygenase COX-2 (Homo sapiens, UniProt P35354); assay: biochemical; design: Eurofins Alzheimer's MoA LeadHunter enzyme assays; percent inhibition of enzyme activity, mean of duplicates; conditions: Ligand or Substrate=Arachidonic acid
T6 construct: gene PTGS2
Procedure: as §1

[6] = target: T1, Fatty Acid Amide Hydrolase (FAAH); assay: biochemical; design: Eurofins Alzheimer's MoA LeadHunter enzyme assays; percent inhibition of enzyme activity, mean of duplicates; conditions: Ligand or Substrate=AMC arachidonoyl amide
Procedure: as §1

IDO1 = IDO1 (Homo sapiens, UniProt P14902); assay: biochemical; design: Eurofins Alzheimer's MoA LeadHunter enzyme assays; percent inhibition of enzyme activity, mean of duplicates; conditions: Ligand or Substrate=L-tryptophan (L-Trp)
Procedure: as §1

Lipoxygenase 15-LOX-2 = target: T7, Lipoxygenase 15-LOX-2 (Homo sapiens, UniProt O15296); assay: biochemical; design: Eurofins Alzheimer's MoA LeadHunter enzyme assays; percent inhibition of enzyme activity, mean of duplicates; conditions: Ligand or Substrate=AMC arachidonoyl amide
T7 construct: gene ALOX15B
Procedure: as §1

Monoamine Oxidase MAO-A = target: T8, Monoamine Oxidase MAO-A (Homo sapiens, UniProt P21397); assay: biochemical; design: Eurofins Alzheimer's MoA LeadHunter enzyme assays; percent inhibition of enzyme activity, mean of duplicates; conditions: Ligand or Substrate=Kynuramine
T8 construct: gene MAOA
Procedure: as §1

Monoamine Oxidase MAO-B = target: T9, Monoamine Oxidase MAO-B (Homo sapiens, UniProt P27338); assay: biochemical; design: Eurofins Alzheimer's MoA LeadHunter enzyme assays; percent inhibition of enzyme activity, mean of duplicates; conditions: Ligand or Substrate=Kynuramine
T9 construct: gene MAOB
Procedure: as §1

Myeloperoxidase = target: T10, Myeloperoxidase (Homo sapiens, UniProt P05164); assay: biochemical; design: Eurofins Alzheimer's MoA LeadHunter enzyme assays; percent inhibition of enzyme activity, mean of duplicates; conditions: Ligand or Substrate=Guaiacol
T10 construct: gene MPO
Procedure: as §1

[7] = target: Peptidase, BACE1 (beta-Secretase) (Homo sapiens, UniProt P56817); assay: biochemical; design: Eurofins Alzheimer's MoA LeadHunter enzyme assays; percent inhibition of enzyme activity, mean of duplicates; conditions: Ligand or Substrate=MOCAc-S-E-V-N-L-D-A-E-F-R-K(Dnp)-R-R-NH2
Procedure: as §1

[8] = target: Peptidase, CTSB (Cathepsin B) (Homo sapiens, UniProt P07858); assay: biochemical; design: Eurofins Alzheimer's MoA LeadHunter enzyme assays; percent inhibition of enzyme activity, mean of duplicates; conditions: Ligand or Substrate=Boc-Leu-Arg-Arg-AMC
Procedure: as §1

[9] = target: T11, Peptidase, Endothelin Converting Enzyme-1 (ECE-1) (Homo sapiens, UniProt P42892); assay: biochemical; design: Eurofins Alzheimer's MoA LeadHunter enzyme assays; percent inhibition of enzyme activity, mean of duplicates; conditions: Ligand or Substrate=Mca-[…]Dnp)
T11 construct: gene ECE1
Procedure: as §1

[10] = target: T12, Peptidase, Metalloproteinase, Neutral Endopeptidase (Homo sapiens, UniProt P08473); assay: biochemical; design: Eurofins Alzheimer's MoA LeadHunter enzyme assays; percent inhibition of enzyme activity, mean of duplicates; conditions: Ligand or Substrate=Mca-R-P-P-G-F-S-A-F-K(Dnp)-OH
T12 construct: gene MME
Procedure: as §1

[11] = target: Protein Serine/Threonine Kinase, GSK3B (Homo sapiens, UniProt P49841); assay: biochemical; design: Eurofins Alzheimer's MoA LeadHunter enzyme assays; percent inhibition of enzyme activity, mean of duplicates; conditions: Ligand or Substrate=Phospho-glycogen synthase peptide-2
Procedure: as §1

[12] = target: Protein Serine/Threonine Kinase, MAPK14 (p38alpha) (Homo sapiens, UniProt Q16539); assay: biochemical; design: Eurofins Alzheimer's MoA LeadHunter enzyme assays; percent inhibition of enzyme activity, mean of duplicates; conditions: Ligand or Substrate=Myelin Basic Protein (MBP)
Procedure: as §1

[13] = target: Protein Tyrosine Kinase, Fyn (Homo sapiens, UniProt P06241); assay: biochemical; design: Eurofins Alzheimer's MoA LeadHunter enzyme assays; percent inhibition of enzyme activity, mean of duplicates; conditions: Ligand or Substrate=Poly(Glu:Tyr)
Procedure: as §1

[14] = target: Protein Tyrosine Phosphatase, DUSP22 (Homo sapiens, UniProt Q9NRW4); assay: biochemical; design: Eurofins Alzheimer's MoA LeadHunter enzyme assays; percent inhibition of enzyme activity, mean of duplicates; conditions: Ligand or Substrate=DiFMUP
Procedure: as §1

Adenosine A2A = target: T13, Adenosine A2A (Homo sapiens, UniProt P29274); assay: biochemical; design: Eurofins Alzheimer's MoA LeadHunter radioligand binding assays; percent inhibition of specific binding, mean of duplicates; conditions: Ligand or Substrate=[3H]CGS-21680
T13 construct: gene ADORA2A
Procedure: as §1

Chemokine CX3CR1 = Chemokine CX3CR1 (Homo sapiens, UniProt P49238); assay: biochemical; design: Eurofins Alzheimer's MoA LeadHunter radioligand binding assays; percent inhibition of specific binding, mean of duplicates; conditions: Ligand or Substrate=[125I]Fractalkine
Procedure: as §1

[15] = target: T14, Glutamate, Metabotropic, mGlu5 (Homo sapiens, UniProt P41594); assay: biochemical; design: Eurofins Alzheimer's MoA LeadHunter radioligand binding assays; percent inhibition of specific binding, mean of duplicates; conditions: Ligand or Substrate=[3H]Quisqualic acid
T14 construct: gene GRM5
Procedure: as §1

Histamine H3 = target: T15, Histamine H3 (Homo sapiens, UniProt Q9Y5N1); assay: biochemical; design: Eurofins Alzheimer's MoA LeadHunter radioligand binding assays; percent inhibition of specific binding, mean of duplicates; conditions: Ligand or Substrate=[3H]N-alpha-Methylhistamine (NAMH)
T15 construct: gene HRH3
Procedure: as §1

Muscarinic M1 = target: T16, Muscarinic M1 (Homo sapiens, UniProt P11229); assay: biochemical; design: Eurofins Alzheimer's MoA LeadHunter radioligand binding assays; percent inhibition of specific binding, mean of duplicates; conditions: Ligand or Substrate=[3H]N-Methylscopolamine
T16 construct: gene CHRM1
Procedure: as §1

[16] = target: T17, Nicotinic Acetylcholine alpha7, Methyllycaconitine (Rattus norvegicus, UniProt Q05941); assay: biochemical; design: Eurofins Alzheimer's MoA LeadHunter radioligand binding assays; percent inhibition of specific binding, mean of duplicates; conditions: Ligand or Substrate=[3H]Methyllycaconitine
T17 construct: gene Chrna7; methyllycaconitine site
Procedure: as §1

[17] = target: T18, Platelet Activating Factor (PAF) (Homo sapiens, UniProt P25105); assay: biochemical; design: Eurofins Alzheimer's MoA LeadHunter radioligand binding assays; percent inhibition of specific binding, mean of duplicates; conditions: Ligand or Substrate=[3H]PAF
T18 construct: gene PTAFR
Procedure: as §1

[18] = target: T19, Serotonin (5-Hydroxytryptamine) 5-HT1A, WAY-100635 (Homo sapiens, UniProt P08908); assay: biochemical; design: Eurofins Alzheimer's MoA LeadHunter radioligand binding assays; percent inhibition of specific binding, mean of duplicates; conditions: Ligand or Substrate=[3H]WAY100635
T19 construct: gene HTR1A; WAY-100635
Procedure: as §1

[19] = target: T20, Serotonin (5-Hydroxytryptamine) 5-HT4B (Homo sapiens, UniProt Q13639); assay: biochemical; design: Eurofins Alzheimer's MoA LeadHunter radioligand binding assays; percent inhibition of specific binding, mean of duplicates; conditions: Ligand or Substrate=[3H]GR-113808
T20 construct: gene HTR4; isoform 5-HT4B
Procedure: as §1

[20] = target: T21, Serotonin (5-Hydroxytryptamine) 5-HT6 (Homo sapiens, UniProt P50406); assay: biochemical; design: Eurofins Alzheimer's MoA LeadHunter radioligand binding assays; percent inhibition of specific binding, mean of duplicates; conditions: Ligand or Substrate=[3H]Lysergic acid diethylamide (LSD)
T21 construct: gene HTR6
Procedure: as §1

Sigma1 = target: T22, Sigma1 (Homo sapiens, UniProt Q99720); assay: biochemical; design: Eurofins Alzheimer's MoA LeadHunter radioligand binding assays; percent inhibition of specific binding, mean of duplicates; conditions: Ligand or Substrate=[3H]Pentazocine
T22 construct: gene SIGMAR1
Procedure: as §1

Somatostatin sst4 = target: T23, Somatostatin sst4 (Homo sapiens, UniProt P31391); assay: biochemical; design: Eurofins Alzheimer's MoA LeadHunter radioligand binding assays; percent inhibition of specific binding, mean of duplicates; conditions: Ligand or Substrate=[125I]Tyr11-Somatostatin 14
T23 construct: gene SSTR4
Procedure: as §1

T1 sequence (O00519 whole entry): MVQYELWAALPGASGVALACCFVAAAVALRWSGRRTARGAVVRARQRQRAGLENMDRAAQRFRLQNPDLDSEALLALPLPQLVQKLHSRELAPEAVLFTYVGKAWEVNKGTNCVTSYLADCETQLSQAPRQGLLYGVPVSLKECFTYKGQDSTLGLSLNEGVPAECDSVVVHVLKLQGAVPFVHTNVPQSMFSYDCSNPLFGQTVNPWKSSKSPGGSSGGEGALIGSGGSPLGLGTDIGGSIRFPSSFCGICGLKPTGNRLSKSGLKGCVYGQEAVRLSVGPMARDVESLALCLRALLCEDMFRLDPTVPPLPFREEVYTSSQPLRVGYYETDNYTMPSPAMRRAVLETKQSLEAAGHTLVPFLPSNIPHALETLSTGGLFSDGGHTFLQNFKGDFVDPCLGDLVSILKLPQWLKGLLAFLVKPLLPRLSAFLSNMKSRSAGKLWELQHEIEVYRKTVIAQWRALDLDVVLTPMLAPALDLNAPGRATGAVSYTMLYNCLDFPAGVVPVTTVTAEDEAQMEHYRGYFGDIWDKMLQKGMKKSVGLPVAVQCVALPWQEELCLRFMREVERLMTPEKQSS
T18 sequence (P25105 whole entry): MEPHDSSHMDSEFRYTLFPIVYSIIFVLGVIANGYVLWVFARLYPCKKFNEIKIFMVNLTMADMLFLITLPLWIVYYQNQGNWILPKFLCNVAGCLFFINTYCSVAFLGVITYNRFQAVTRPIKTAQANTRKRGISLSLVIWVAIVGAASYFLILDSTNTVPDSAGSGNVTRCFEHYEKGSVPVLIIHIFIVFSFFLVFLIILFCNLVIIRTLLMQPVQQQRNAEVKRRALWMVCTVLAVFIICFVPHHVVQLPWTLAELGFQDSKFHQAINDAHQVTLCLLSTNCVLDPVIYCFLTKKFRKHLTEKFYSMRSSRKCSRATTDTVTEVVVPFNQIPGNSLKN
T5 sequence (P23219 whole entry): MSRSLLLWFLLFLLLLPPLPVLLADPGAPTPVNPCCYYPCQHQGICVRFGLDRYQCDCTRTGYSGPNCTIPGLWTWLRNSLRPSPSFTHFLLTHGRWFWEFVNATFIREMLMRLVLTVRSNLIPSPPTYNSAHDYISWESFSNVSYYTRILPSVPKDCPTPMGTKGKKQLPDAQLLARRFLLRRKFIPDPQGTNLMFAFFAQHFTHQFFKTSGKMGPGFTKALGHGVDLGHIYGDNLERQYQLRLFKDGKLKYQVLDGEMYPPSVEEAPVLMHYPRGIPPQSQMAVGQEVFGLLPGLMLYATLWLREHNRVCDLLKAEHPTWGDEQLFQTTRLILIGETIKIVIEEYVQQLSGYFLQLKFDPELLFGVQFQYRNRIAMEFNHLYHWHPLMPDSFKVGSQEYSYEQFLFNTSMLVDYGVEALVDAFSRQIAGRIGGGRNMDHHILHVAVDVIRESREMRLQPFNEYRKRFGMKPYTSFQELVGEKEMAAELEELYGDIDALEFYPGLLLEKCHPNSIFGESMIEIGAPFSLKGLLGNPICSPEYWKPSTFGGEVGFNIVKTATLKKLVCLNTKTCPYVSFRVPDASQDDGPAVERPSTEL
T21 sequence (P50406 whole entry): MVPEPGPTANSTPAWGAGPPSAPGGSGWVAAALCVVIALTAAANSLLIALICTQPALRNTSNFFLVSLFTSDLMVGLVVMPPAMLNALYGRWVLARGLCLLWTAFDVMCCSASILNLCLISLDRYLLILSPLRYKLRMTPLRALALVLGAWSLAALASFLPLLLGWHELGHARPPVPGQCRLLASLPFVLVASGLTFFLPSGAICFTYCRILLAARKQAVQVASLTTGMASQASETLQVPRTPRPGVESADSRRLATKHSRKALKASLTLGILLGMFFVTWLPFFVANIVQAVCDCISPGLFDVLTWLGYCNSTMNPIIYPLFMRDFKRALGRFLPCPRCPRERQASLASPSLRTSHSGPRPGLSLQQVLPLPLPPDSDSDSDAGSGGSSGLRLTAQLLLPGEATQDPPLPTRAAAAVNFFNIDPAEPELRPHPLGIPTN
T23 sequence (P31391 whole entry): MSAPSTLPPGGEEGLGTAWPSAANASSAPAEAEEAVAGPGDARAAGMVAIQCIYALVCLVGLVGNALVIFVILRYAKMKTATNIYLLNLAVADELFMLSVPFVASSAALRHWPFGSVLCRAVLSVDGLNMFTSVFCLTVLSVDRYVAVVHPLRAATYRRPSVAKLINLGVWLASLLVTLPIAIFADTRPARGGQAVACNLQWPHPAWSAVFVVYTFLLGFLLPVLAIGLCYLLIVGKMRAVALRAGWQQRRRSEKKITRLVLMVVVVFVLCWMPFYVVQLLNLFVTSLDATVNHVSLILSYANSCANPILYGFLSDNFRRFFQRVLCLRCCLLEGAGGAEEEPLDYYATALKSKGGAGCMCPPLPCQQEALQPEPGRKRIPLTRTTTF
T20 sequence (Q13639 whole entry, canonical isoform): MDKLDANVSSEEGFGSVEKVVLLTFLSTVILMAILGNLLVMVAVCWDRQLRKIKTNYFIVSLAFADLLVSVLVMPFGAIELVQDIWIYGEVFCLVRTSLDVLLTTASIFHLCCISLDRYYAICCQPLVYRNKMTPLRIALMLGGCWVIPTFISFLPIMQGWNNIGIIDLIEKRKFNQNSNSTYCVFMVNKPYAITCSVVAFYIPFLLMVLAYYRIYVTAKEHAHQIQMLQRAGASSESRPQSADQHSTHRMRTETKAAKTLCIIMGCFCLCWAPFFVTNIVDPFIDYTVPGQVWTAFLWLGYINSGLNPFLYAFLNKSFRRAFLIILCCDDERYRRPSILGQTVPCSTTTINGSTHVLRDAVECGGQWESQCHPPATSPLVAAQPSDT
Protein Tyrosine Phosphatase, DUSP22, sequence (Q9NRW4 whole entry): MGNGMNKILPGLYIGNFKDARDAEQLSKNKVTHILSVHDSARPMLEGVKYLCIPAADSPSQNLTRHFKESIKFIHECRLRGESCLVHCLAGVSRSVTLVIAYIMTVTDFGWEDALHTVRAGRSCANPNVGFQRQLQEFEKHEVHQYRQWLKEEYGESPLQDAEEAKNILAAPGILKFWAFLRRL
T15 sequence (Q9Y5N1 whole entry): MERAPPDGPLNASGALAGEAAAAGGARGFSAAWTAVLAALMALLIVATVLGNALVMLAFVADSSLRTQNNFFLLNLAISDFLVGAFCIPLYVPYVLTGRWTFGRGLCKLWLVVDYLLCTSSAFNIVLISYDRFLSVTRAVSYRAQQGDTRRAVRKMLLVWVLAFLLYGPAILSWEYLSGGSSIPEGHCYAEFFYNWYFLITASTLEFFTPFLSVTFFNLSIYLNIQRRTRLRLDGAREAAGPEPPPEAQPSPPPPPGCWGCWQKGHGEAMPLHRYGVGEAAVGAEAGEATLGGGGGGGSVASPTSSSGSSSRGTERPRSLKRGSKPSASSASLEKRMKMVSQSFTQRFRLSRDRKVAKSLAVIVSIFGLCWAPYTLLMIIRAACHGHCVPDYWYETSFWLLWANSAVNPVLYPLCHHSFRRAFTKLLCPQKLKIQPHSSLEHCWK
T11 sequence (P42892 whole entry): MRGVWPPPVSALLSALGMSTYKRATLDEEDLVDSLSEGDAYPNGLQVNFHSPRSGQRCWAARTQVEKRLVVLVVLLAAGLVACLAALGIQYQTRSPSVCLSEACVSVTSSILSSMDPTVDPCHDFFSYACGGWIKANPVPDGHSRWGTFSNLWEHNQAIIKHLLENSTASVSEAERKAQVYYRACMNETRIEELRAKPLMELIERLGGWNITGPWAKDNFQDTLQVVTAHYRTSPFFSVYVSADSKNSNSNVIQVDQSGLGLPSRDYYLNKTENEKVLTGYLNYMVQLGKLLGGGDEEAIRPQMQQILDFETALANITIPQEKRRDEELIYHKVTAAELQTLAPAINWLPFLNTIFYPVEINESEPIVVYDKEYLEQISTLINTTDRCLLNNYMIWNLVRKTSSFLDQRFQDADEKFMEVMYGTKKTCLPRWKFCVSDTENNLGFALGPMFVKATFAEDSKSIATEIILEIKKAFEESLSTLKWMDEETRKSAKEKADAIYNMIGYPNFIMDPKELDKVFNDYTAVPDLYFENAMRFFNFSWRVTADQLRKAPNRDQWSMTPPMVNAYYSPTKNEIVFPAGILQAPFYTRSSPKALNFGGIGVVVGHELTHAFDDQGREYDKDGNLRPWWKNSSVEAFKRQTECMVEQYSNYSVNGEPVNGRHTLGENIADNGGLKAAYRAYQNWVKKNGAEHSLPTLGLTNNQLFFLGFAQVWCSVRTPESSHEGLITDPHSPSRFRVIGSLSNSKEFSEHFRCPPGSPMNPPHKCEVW
T16 sequence (P11229 whole entry): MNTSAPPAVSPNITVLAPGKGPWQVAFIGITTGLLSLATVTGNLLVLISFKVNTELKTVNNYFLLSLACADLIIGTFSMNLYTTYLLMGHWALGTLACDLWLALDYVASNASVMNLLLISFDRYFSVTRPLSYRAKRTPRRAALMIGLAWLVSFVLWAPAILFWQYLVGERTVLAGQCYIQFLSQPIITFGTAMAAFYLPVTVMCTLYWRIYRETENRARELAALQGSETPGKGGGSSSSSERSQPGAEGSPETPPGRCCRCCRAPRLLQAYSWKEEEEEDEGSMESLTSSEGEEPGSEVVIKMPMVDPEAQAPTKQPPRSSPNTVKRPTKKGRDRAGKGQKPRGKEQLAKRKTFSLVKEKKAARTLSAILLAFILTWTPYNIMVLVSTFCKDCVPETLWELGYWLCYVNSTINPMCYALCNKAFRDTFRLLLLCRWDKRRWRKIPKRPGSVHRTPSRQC
T22 sequence (Q99720 whole entry): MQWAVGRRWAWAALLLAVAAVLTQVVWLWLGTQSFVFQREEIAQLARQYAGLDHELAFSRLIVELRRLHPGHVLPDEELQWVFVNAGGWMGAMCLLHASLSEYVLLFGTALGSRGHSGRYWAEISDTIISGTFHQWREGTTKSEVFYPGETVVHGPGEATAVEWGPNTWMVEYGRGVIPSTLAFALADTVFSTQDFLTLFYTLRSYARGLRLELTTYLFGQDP

## CCCCCCCCCCCCCCC(=O)O [C15:0, Pentadecanoic acid]
[1]
  IC50: 2.51 µM
[2]
  IC50: 19.4 µM
[3]
  inhibition at 20 µM: 1.5%
[4]
  inhibition at 20 µM: 44.7%
[5]
  inhibition at 20 µM: 2.5%
Cyclooxygenase COX-1
  inhibition at 20 µM: -17%
Cyclooxygenase COX-2
  inhibition at 20 µM: 5.3%
[6]
  inhibition at 20 µM: 70.3%
IDO1
  inhibition at 20 µM: 39.4%
Lipoxygenase 15-LOX-2
  inhibition at 20 µM: 8%
Monoamine Oxidase MAO-A
  inhibition at 20 µM: 11.4%
Monoamine Oxidase MAO-B
  inhibition at 20 µM: 64.7%
Myeloperoxidase
  inhibition at 20 µM: 44.8%
[7]
  inhibition at 20 µM: 2.4%
[8]
  inhibition at 20 µM: -35.2%
[9]
  inhibition at 20 µM: 7.1%
[10]
  inhibition at 20 µM: 2.1%
[11]
  inhibition at 20 µM: 15%
[12]
  inhibition at 20 µM: -14.8%
[13]
  inhibition at 20 µM: -16.2%
[14]
  inhibition at 20 µM: -28.1%
Adenosine A2A
  inhibition at 20 µM: 10.7%
Chemokine CX3CR1
  inhibition at 20 µM: 5.3%
[15]
  inhibition at 20 µM: 0%
Histamine H3
  inhibition at 20 µM: 1.7%
Muscarinic M1
  inhibition at 20 µM: 9%
[16]
  inhibition at 20 µM: -9.1%
[17]
  inhibition at 20 µM: -6.6%
[18]
  inhibition at 20 µM: 3.9%
[19]
  inhibition at 20 µM: -1.7%
[20]
  inhibition at 20 µM: -16.1%
Sigma1
  inhibition at 20 µM: -18.6%
Somatostatin sst4
  inhibition at 20 µM: -4.4%
